The text below walks through data of patent US12540137B2, “N-1 branched alkyl ether substituted imidazo[4,5-c]quinoline compounds, compositions, and methods” (Solventum Intellectual Properties Company, priority 2018, dated 2026).

SMILES strings stand for the structures. Some results are limits rather than exact numbers.

The target of assay [1] is T1, human TLR8 (Homo sapiens, UniProt Q9NR97).
T1 construct: host or cells: HEK293 (HEK-BLUE-hTLR8)
T1 sequence (Q9NR97 27-1041): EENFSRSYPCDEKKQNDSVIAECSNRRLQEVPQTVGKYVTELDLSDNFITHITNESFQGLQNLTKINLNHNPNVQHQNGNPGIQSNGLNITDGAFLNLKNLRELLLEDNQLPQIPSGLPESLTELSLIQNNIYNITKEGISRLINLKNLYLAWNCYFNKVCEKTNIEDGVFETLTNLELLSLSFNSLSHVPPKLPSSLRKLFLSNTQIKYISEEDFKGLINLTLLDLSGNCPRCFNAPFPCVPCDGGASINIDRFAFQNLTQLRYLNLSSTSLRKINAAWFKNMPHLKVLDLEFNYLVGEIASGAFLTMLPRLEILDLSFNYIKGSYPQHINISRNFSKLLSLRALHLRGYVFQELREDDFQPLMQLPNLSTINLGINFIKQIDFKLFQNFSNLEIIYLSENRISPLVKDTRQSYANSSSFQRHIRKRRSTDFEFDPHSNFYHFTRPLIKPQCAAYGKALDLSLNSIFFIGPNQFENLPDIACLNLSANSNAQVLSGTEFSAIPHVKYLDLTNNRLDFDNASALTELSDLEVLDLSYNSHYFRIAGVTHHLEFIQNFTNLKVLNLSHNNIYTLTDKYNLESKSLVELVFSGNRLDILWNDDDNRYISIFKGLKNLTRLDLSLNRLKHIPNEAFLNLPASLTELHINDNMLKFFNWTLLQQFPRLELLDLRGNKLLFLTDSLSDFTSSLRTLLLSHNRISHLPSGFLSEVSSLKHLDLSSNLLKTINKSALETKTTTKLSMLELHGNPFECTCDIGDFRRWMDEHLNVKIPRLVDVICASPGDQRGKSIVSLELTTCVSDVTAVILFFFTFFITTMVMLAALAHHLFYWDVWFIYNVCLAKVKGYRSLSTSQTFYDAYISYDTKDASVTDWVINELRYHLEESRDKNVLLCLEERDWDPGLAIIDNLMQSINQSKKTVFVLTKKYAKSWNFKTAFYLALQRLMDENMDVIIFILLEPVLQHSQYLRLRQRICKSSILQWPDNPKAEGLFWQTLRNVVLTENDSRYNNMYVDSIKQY
Kind of assay: TLR activation, HEK-BLUE-hTLR8 SEAP reporter cells. The assay is classed as cell-based. As to conditions: 16-20 hours, SEAP response at least 2× vehicle control, tested 0.01-30 micromolar. As to the method:
(§1) HEK-BLUE-hTLR7 or hTLR8 reporter cells were obtained from InvivoGen, San Diego, CA. According to the manufacturer's description, these reporter cells were prepared by co-transfection of HEK293 cells with an inducible secreted embryonic alkaline phosphatase (SEAP) reporter gene and either the human TLR7 or TLR8 gene. The SEAP reporter gene was placed under the control of an IFN−β minimal promoter fused to five NF-κB and AP-1-binding sites. In the presence of a TLR ligand, activation of NF-κB and AP-1 occurs, resulting in a corresponding increase in SEAP levels.
(§2) In the assay, the HEK cells were grown and maintained using standard cell culture techniques in a growth medium that contained Dulbecco's Modified Eagle Medium (ThermoFisher Scientific Incorporated, Waltham, MA) supplemented with 1% penicillin/streptomycin and 10% heat-inactivated Gibco fetal bovine serum (ThermoFisher Scientific). Each compound was solubilized in DMSO to create a 3 mM stock solution. The stock solution was then further diluted with the growth medium to prepare serial dilutions. Each test compound was tested at a concentration of 30, 10, 3.3, 1.1, 0.37, 0.12, 0.04, and 0.01 micromolar using a 96-well format with 5×10^4 cells and 200 microliters of growth medium per well.
(§3) For each compound, hTLR7, hTLR8, and their respective null control HEK cells were screened. DMSO serially diluted into the growth medium served as the vehicle control. Cell culture supernatants containing the SEAP reporter were collected after an incubation period of 16-20 hours in a cell culture incubator (37° C. and 5% CO2), and either analyzed immediately or stored at −80° C. SEAP levels were measured using the colorimetric enzyme assay (QUANTI-BLUE (InvivoGen) according to manufacturer's instructions.
(§4) Specifically, the minimum effective concentration of each compound (micromolar) was determined as the lowest concentration of the compound that produced a SEAP expression response at least 2× greater than that observed with the vehicle control wells.

In assay [2] the target is T2, human TLR7 (Homo sapiens, UniProt Q9NYK1).
T2 construct: host or cells: HEK293 (HEK-BLUE-hTLR7)
T2 sequence (Q9NYK1 27-1049): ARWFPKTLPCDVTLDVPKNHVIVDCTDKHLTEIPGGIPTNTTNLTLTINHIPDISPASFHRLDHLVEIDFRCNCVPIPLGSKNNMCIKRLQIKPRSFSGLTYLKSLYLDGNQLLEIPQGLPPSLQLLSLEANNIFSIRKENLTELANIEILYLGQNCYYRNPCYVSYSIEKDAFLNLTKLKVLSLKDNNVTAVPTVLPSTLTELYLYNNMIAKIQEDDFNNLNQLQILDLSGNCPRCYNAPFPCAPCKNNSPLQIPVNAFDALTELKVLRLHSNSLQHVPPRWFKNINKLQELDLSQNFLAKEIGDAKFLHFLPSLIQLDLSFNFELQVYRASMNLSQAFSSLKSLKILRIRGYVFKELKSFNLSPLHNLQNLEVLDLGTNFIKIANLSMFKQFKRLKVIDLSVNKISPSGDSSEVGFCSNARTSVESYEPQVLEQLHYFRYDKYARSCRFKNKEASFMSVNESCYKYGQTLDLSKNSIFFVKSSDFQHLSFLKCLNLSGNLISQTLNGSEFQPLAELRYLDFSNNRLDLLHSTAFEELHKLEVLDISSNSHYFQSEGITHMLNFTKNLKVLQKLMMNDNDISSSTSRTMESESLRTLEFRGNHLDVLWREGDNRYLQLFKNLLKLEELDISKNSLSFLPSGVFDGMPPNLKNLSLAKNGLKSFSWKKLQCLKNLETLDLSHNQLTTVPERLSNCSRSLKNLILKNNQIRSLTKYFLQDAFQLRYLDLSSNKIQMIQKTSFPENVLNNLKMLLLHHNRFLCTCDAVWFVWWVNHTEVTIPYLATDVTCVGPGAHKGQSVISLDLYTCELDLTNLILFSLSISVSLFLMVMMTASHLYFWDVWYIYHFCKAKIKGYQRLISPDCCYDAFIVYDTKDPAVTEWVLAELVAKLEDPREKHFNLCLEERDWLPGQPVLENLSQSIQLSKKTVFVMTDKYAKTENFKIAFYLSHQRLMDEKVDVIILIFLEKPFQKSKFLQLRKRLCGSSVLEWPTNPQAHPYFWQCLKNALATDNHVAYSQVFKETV
The assay can be described thus: TLR activation, HEK-BLUE-hTLR7 SEAP reporter cells. The assay is classed as cell-based. As to conditions: 16-20 hours, SEAP response at least 2× vehicle control, tested 0.01-30 micromolar. As to the method: as §1, §2, §3, §4

On to `CCO[C@@H](C)[C@@H](n1cnc2c(N)nc3ccccc3c21)C(C)(C)O` [Example 13, (3R,4S)-3-(4-aminoimidazo[4,5-c]quinolin-1-yl)-4-ethoxy-2-methyl-pentan-2-ol], for which the “MEC to Produce TLR Activation TLR 8” value in assay [1] was 10 µM. In addition, the “MEC to Produce TLR Activation TLR 7” value in assay [2] is 3.3 µM.

Consider `CCOC[C@H](n1cnc2c(N)nc3ccccc3c21)C(C)(C)O` [Example 6, (3S)-3-(4-aminoimidazo[4,5-c]quinolin-1-yl)-4-ethoxy-2-methyl-butan-2-ol], for which the “MEC to Produce TLR Activation TLR 8” value in assay [1] was greater than 30 µM. Further, in assay [2], the “MEC to Produce TLR Activation TLR 7” value was greater than 30 µM.

For the molecule `CCOC[C@@H](n1c(CC)nc2c(N)nc3ccccc3c21)C(C)(C)O` [Example 8, (3R)-3-(4-amino-2-ethyl-imidazo[4,5-c]quinolin-1-yl)-4-ethoxy-2-methyl-butan-2-ol], the “MEC to Produce TLR Activation TLR 8” value in assay [1] amounted to 10 µM. In addition, the “MEC to Produce TLR Activation TLR 7” value in assay [2] worked out at 10 µM.

With `CCOC[C@H](C(C)C)n1c(C)nc2c(N)nc3ccccc3c21` [Example 3, 1-[(1S)-1-(ethoxymethyl)-2-methyl-propyl]-2-methyl-imidazo[4,5-c]quinolin-4-amine], in assay [1], the “MEC to Produce TLR Activation TLR 8” value was 30 µM. Also, in assay [2], the “MEC to Produce TLR Activation TLR 7” value amounted to 1.1 µM.

Regarding `CCOC[C@@H](n1cnc2c(N)nc3ccccc3c21)C(O)(CC)CC` [Example 12, (2R)-2-(4-aminoimidazo[4,5-c]quinolin-1-yl)-1-ethoxy-3-ethyl-pentan-3-ol], the “MEC to Produce TLR Activation TLR 8” value in assay [1] is 30 µM. Further, the “MEC to Produce TLR Activation TLR 7” value in assay [2] came to 0.04 µM.

Consider `CCOC[C@@H](n1cnc2c(N)nc3ccccc3c21)C(C)(C)O` [Example 5, (3R)-3-(4-aminoimidazo[4,5-c]quinolin-1-yl)-4-ethoxy-2-methyl-butan-2-ol], for which the “MEC to Produce TLR Activation TLR 8” value in assay [1] amounted to 3.3 µM. In addition, the “MEC to Produce TLR Activation TLR 7” value in assay [2] is no more than 0.01 µM.

On to `CCOC[C@@H](C(C)C)n1cnc2c(N)nc3ccccc3c21` [Example 2, 1-[(1R)-1-(ethoxymethyl)-2-methyl-propyl]imidazo[4,5-c]quinolin-4-amine], for which the “MEC to Produce TLR Activation TLR 8” value in assay [1] is greater than 30 µM. Further, the “MEC to Produce TLR Activation TLR 7” value in assay [2] worked out at 3.3 µM.

In the case of `CCOC[C@H](n1cnc2c(N)nc3ccccc3c21)C(C)(C)C` [Example 10, 1-[(1R)-1-(ethoxymethyl)-2,2-dimethyl-propyl]imidazo[4,5-c]quinolin-4-amine], in assay [1], the “MEC to Produce TLR Activation TLR 8” value is greater than 30 µM. In addition, the “MEC to Produce TLR Activation TLR 7” value in assay [2] was determined as 30 µM.

As for `CCOC[C@@H](n1cnc2c(N)nc3ccccc3c21)C(C)(C)C` [Example 9, 1-[(1S)-1-(ethoxymethyl)-2,2-dimethyl-propyl]imidazo[4,5-c]quinolin-4-amine], in assay [1], the “MEC to Produce TLR Activation TLR 8” value was 30 µM. Further, the “MEC to Produce TLR Activation TLR 7” value in assay [2] is no more than 0.01 µM.

For `COC[C@@H](n1cnc2c(N)nc3ccccc3c21)C(C)(C)C` [Example 11, 1-[(1S)-1-(methoxymethyl)-2,2-dimethyl-propyl]imidazo[4,5-c]quinolin-4-amine], the “MEC to Produce TLR Activation TLR 8” value in assay [1] was greater than 30 µM. Besides, the “MEC to Produce TLR Activation TLR 7” value in assay [2] is 0.04 µM.

As to `CCOC[C@H](C(C)C)n1cnc2c(N)nc3ccccc3c21` [Example 1, 1-[(1S)-1-(ethoxymethyl)-2-methyl-propyl]imidazo[4,5-c]quinolin-4-amine], the “MEC to Produce TLR Activation TLR 8” value in assay [1] came out at 30 µM. Moreover, in assay [2], the “MEC to Produce TLR Activation TLR 7” value is 0.12 µM.

As for `CCOC[C@@H](n1c(C)nc2c(N)nc3ccccc3c21)C(C)(C)O` [Example 7, (3R)-3-(4-amino-2-methyl-imidazo[4,5-c]quinolin-1-yl)-4-ethoxy-2-methyl-butan-2-ol], the “MEC to Produce TLR Activation TLR 8” value in assay [1] is 1.1 µM. Moreover, the “MEC to Produce TLR Activation TLR 7” value in assay [2] is 0.37 µM.

With `CCOC[C@@H](C(C)C)n1c(C)nc2c(N)nc3ccccc3c21` [Example 4, 1-[(1R)-1-(ethoxymethyl)-2-methyl-propyl]-2-methyl-imidazo[4,5-c]quinolin-4-amine], the “MEC to Produce TLR Activation TLR 8” value in assay [1] is greater than 30 µM. The “MEC to Produce TLR Activation TLR 7” value in assay [2] is greater than 30 µM.
